Data taken from patent publication US20200138927A1, “NON-CROSS-LINKED […] […] […] FOR USE IN C[…]” (GlaxoSmithKline Biologicals SA, priority 2012, published 2020).
In brackets after ≈: the same amount, converted by molar mass.

Key:
[1] = Adsorption to aluminium hydroxide; assay type: physicochemical
[2] = Solubility in water; assay type: physicochemical

Cc1ccc2c(c1)nc(N)c1ncc(CCc3ccc(OCCOCCOCCC(F)(F)P(=O)(O)O)cc3C)cc12 [Compound K1]
adsorption to aluminium hydroxide [1]: adsorbs well | solubility [2]: ~4 mg/mL (≈ 6.78 mM)
